Columns and labels:
Assay in all cases: relative viability (nuclei count vs DMSO), 5 days (fraction); higher = more cells survive
[1] = compound: C(C(=O)C(=O)O)Br [Bromopyruvate] + CC(=O)Nc1cccc(-n2c(=O)n(C3CC3)c(=O)c3c(Nc4ccc(I)cc4F)n(C)c(=O)c(C)c32)c1 [Trametinib] (partner 0.02 µM)
Outline: (§1)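 Medians of duplicate plates are given as relative viability. That measure is the nuclei count in treated wells divided by the count in vehicle wells. Counts were taken on 4× images of lung cancer cell lines in 1536-well plates, 5 days after pin-tool dosing the day after seeding with one drug alone or a fixed anchor-drug dose plus five library-drug doses (not always all listed) in √10 steps.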

[2] = compound: C(C(=O)C(=O)O)Br [Bromopyruvate] + CC1(C)CCC(c2ccc(Cl)cc2)=C(CN2CCN(c3ccc(C(=O)NS(=O)(=O)c4ccc(N[C@H](CCN5CCOCC5)CSc5ccccc5)c(S(=O)(=O)C(F)(F)F)c4)cc3)CC2)C1 [Navitoclax] (partner 0.5 µM)
Outline: as §1

[3] = compound: C(C(=O)C(=O)O)Br [Bromopyruvate] + COc1cc2c(Oc3ccc(NC(=O)C4(C(=O)Nc5ccc(F)cc5)CC4)cc3F)ccnc2cc1OCCCN1CCOCC1 [Foretinib] (partner 0.25 µM)
Outline: as §1

[4] = compound: C(C(=O)C(=O)O)Br [Bromopyruvate] + Cc1cc(Nc2cc(N3CCN(C)CC3)nc(Sc3ccc(NC(=O)C4CC4)cc3)n2)n[nH]1 [Tozasertib] (partner 0.1 µM)
Outline: as §1

UMC-11 showed a relative viability ([1]; first compound 1 µM) of 0.746, a relative viability ([1]; first compound 3.162 µM) of 0.604 and a relative viability ([1]; first compound 10 µM) of 0.622. For the same cell line, the relative viability ([1]; first compound 31.62 µM) was 0.732, the relative viability ([1]; first compound 100 µM) was 0.748 and the relative viability ([2]; first compound 1 µM) was 0.289. It also gave a relative viability ([2]; first compound 3.162 µM) of 0.291, a relative viability ([2]; first compound 10 µM) of 0.304 and a relative viability ([2]; first compound 31.62 µM) of 0.297. The relative viability ([2]; first compound 100 µM) was 0.288, the relative viability ([3]; first compound 1 µM) was 1.05 and the relative viability ([3]; first compound 3.162 µM) was 1.02. It also gave a relative viability ([3]; first compound 10 µM) of 1.04, a relative viability ([3]; first compound 31.62 µM) of 0.989 and a relative viability ([3]; first compound 100 µM) of 0.987. It also gave a relative viability ([4]; first compound 1 µM) of 0.201, a relative viability ([4]; first compound 3.162 µM) of 0.196 and a relative viability ([4]; first compound 10 µM) of 0.188. It also gave a relative viability ([4]; first compound 31.62 µM) of 0.208 and a relative viability ([4]; first compound 100 µM) of 0.213.
